Experimental data as given in publication PMC10342134, “Isolation and Characterization of Poeciguamerin, a Peptide with Dual Analgesic and Anti-Thrombotic Activity from the Poecilobdella manillensis Leech” (International Journal of Molecular Sciences, 2023).
Bridge positions count the residues as written; N and C are the ends. Ends that are not written are not given here.

Assays:
elastase = molecular target: T1, elastase (Homo sapiens, UniProt P08246); assay: Effect on elastase activity (chromogenic substrate assay; Dixon plot Ki); format: biochemical
T1 construct: purchased Sigma-Aldrich E8140
T1 sequence (P08246 30-267): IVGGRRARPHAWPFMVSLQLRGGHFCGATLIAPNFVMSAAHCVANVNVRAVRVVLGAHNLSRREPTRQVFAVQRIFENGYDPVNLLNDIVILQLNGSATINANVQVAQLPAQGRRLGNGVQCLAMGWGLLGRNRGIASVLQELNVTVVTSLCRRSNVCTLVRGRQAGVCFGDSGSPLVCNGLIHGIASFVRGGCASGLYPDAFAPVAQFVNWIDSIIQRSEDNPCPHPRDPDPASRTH
Text: (§1) Thus, we examined the effects of poeciguamerin on proteases such as FXIIa, kallikrein, trypsin, thrombin, FXa, and elastase using appropriate chromogenic substrates.
(§2) Figure 3 Effects of poeciguamerin on elastase and coagulation. Effects of natural poeciguamerin on elastase (A), FXIIa (B), kallikrein (C), FXa (D), trypsin (E), and thrombin (F) enzymatic activities.
(§3) We mixed poeciguamerin with specific chromogenic substrates and proteases to evaluate the effect of poeciguamerin on various enzymatic activities. […] The proteases and different concentrations of natural poeciguamerin (0, 0.5, 1, 2, 10, 20, 40 μM) were incubated in a total volume of 60 μL in buffer (50 mM Tris-HCl pH 7.4) for 5 min at room temperature. Subsequently, a buffer containing the appropriate enzyme substrate was added to a total volume of 100 μL. Using an enzyme marker, GEN CHS v1.09 software detected OD405 at 30-s intervals and recorded for 10 min to calculate enzyme kinetics.

FXIIa = molecular target: T2, FXIIa (Homo sapiens, UniProt P00748); assay: Effect on FXIIa activity (chromogenic substrate assay; Dixon plot Ki); format: biochemical; details: natural poeciguamerin 0-40 μM; FXIIa 10 nM; S-2302 0.2 mM; 50 mM Tris-HCl pH 7.4; 5 min, room temperature; OD405 for 10 min
T2 construct: purchased Enzyme Research Laboratories 1212a
T2 sequence (P00748 373-615 limits assumed): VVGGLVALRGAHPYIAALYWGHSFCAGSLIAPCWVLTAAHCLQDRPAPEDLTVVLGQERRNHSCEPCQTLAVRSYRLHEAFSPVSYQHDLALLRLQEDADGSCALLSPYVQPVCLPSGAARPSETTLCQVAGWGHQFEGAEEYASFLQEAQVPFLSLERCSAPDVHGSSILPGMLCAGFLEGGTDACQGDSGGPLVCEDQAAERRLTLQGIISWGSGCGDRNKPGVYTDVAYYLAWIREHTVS
T2 sequence (P00748 20-372 partner limits assumed): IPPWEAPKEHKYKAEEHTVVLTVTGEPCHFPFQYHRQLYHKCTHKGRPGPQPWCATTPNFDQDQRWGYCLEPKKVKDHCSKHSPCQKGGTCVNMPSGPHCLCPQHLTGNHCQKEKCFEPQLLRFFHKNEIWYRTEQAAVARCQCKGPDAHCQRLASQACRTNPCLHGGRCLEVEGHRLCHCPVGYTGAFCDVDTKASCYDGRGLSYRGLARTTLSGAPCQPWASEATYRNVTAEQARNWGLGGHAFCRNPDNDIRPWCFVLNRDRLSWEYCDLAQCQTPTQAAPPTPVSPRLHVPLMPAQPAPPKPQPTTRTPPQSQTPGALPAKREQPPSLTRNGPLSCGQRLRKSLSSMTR
Text: as §1, §2, §3

kallikrein = molecular target: T3, kallikrein (Homo sapiens, UniProt P03952); assay: Effect on kallikrein activity (chromogenic substrate assay; Dixon plot Ki); format: biochemical; details: natural poeciguamerin 0-40 μM; kallikrein 80 nM; S-2302 0.2 mM; 50 mM Tris-HCl pH 7.4; 5 min, room temperature; OD405 for 10 min
T3 construct: purchased Enzyme Research Laboratories 1303
T3 sequence (P03952 391-638 limits assumed): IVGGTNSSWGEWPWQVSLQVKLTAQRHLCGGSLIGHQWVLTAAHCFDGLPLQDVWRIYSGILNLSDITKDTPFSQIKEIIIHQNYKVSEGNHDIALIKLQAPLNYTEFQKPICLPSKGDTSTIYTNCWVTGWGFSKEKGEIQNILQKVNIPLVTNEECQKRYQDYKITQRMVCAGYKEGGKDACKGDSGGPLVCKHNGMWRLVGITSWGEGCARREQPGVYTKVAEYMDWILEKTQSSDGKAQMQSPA
T3 sequence (P03952 20-390 partner limits assumed): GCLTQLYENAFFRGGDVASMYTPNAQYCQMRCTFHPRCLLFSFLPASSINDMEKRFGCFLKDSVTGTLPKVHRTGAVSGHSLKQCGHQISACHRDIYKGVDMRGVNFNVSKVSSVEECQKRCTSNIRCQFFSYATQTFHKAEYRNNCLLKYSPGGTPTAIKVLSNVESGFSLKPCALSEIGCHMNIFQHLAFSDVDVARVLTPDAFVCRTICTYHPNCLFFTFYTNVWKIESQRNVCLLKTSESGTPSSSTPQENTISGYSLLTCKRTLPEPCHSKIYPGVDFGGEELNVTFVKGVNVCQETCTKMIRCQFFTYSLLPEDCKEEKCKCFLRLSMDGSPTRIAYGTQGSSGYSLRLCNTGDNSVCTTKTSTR
Text: as §1, §2, §3

FXa = assay: Effect on FXa activity (chromogenic substrate assay); format: biochemical; details: natural poeciguamerin 0-40 μM; FXa 20 nM; S-2222 0.2 mM; 50 mM Tris-HCl pH 7.4; 5 min, room temperature; OD405 for 10 min
Procedure: as §2
(§4) We mixed poeciguamerin with specific chromogenic substrates and proteases to evaluate the effect of poeciguamerin on various enzymatic activities. These enzymes and substrates included FXIIa (10 nM, 1212a, Enzyme Research Laboratories, South Bend, IN, USA; substrate: 0.2 mM, S-2302, Chromogenix, Milan, Italy), kallikrein (80 nM, 1303, Enzyme Research Laboratories, South Bend, IN, USA; substrate: 0.2 mM, S-2302, Chromogenix, Milan, Italy), trypsin (0.8 μM, T2600000, Sigma-Aldrich, St. Louis, MO, USA; substrate: 0.2 mM, S-2222, Chromogenix, Milan, Italy), thrombin (10 nM, 1002a, Enzyme Research Laboratories, South Bend, IN, USA; substrate: 0.2 mM, S-2238, Chromogenix, Milan, Italy), FXa (20 nM, 1011, Enzyme Research Laboratories, South Bend, IN, USA; substrate: 0.2 mM, S-2222, Chromogenix, Milan, Italy), elastase (0.4 μM, E8140, Sigma-Aldrich, St. Louis, MO, USA; substrate: 0.2 mM, 324696, Sigma-Aldrich, St. Louis, MO, USA), and other proteases were affected. […] Using an enzyme marker, GEN CHS v1.09 software detected OD405 at 30-s intervals and recorded for 10 min to calculate enzyme kinetics.

trypsin = assay: Effect on trypsin activity (chromogenic substrate assay); format: biochemical; details: natural poeciguamerin 0-40 μM; trypsin 0.8 μM; S-2222 0.2 mM; 50 mM Tris-HCl pH 7.4; 5 min, room temperature; OD405 for 10 min
Procedure: as §2, §4

thrombin = assay: Effect on thrombin activity (chromogenic substrate assay); format: biochemical; details: natural poeciguamerin 0-40 μM; thrombin 10 nM; S-2238 0.2 mM; 50 mM Tris-HCl pH 7.4; 5 min, room temperature; OD405 for 10 min
Procedure: as §2, §4

mice [1] = assay: Foot-licking mouse model (elastase-induced pain); format: in vivo, mouse (female C57BL/6J); details: poeciguamerin 0, 6, 12 mg/kg i.v. 10 min before 25 μL elastase (6 mg/kg) in right hind paw; phase I 0–10 min and phase II 10–30 min; n = 5 per group
Procedure: (§5) To evaluate the biological activity of poeciguamerin, we used the foot-licking mouse model and the tail-withdrawal mouse model. In the foot-licking mouse model, we placed the mice in a hot plate apparatus at a temperature of 55 ± 0.5 °C. The pain thresholds of the mice were measured twice every 15 min and hind paw licking was used as the observation parameter. Female mice showing a pain response within 10–30 s were selected and randomly divided into four groups. In the control group, 25 μL elastase (6 mg/kg) was injected into the base of the right hind paw, while in the experimental group, poeciguamerin (0, 6, 12 mg/kg) was injected intravenously 10 min before the elastase injection. […] The cumulative number of foot licks during the first phase (0–10 min) (Figure 5A) and the second phase (10–30 min) (Figure 5B) was recorded. […] The tails of the mice were stretched in hot water at 45 °C and the time of tail flicking was recorded.
(§6) Figure 5 Effects of poeciguamerin on elastase or hot water bath-induced pain. […] The total time mice spent licking the paw was recorded during the I phase (0–10 min) (A) and the II phase (10–30 min) (B). n = 5 per group. Data are expressed as mean ± SEM and were subjected to an unpaired t-test, *** p < 0.001. […] The tails of the mice were stretched in hot water at 45 °C and the time of the tail flick was recorded (C). n = 5 per group. […]

mice [2] = assay: Tail withdrawal mouse model (hot water bath); format: in vivo, mouse (female C57BL/6J); details: poeciguamerin 0, 6, 12 mg/kg, tail vein; water 45 °C; maximum time 15 s; n = 5 per group
Procedure: as §5, §6

VDEKAEVTDDLCGDKTCSGAQVCQNDACVCSPVRCMIMCPNGFKLDENGCEYPCSCA (disulfide 12-23, 17-28, 30-50, 35-54, 39-56) [poeciguamerin]
effect on elastase activity (elastase; natural poeciguamerin 0-40 μM, elastase 0.4 μM, substrate 324696 0.2 mM, 50 mM Tris-HCl pH 7.4, 5 min, room temperature, OD405 for 10 min): dose-dependent inhibition | inhibition of elastase activity by chromatographic peak fractions (elastase; peak fractions of P. manillensis salivary gland secretions (Sephadex G-50, RP-HPLC C8, Mono S FPLC), elastase chromogenic substrate assay): significantly inhibited elastase activity | effect on FXIIa activity (FXIIa): slight inhibition | effect on kallikrein activity (kallikrein): slight inhibition | effect on FXa activity (FXa): no inhibitory effects | effect on trypsin activity (trypsin): no inhibitory effects | effect on thrombin activity (thrombin): no inhibitory effects | effect on elastase-induced pain (cumulative foot licks) (mice [1]): attenuated this painful response | effect on hot water-induced pain response (tail withdrawal latency) (mice [2]): attenuated this pain response
